Data on 2 compounds can be found in patent US8227433B2, “Use of inhibitors and antisense oligonucleotides of BTK for treating proliferative mastocytosis” (Centre National de la Recherche Scientifique (CNRS), priority 2003, dated 2012).

In one data set the test system is BTK. The experiment in a line: BTK expression in HMC-1 clones that integrated the retrovirus vector coding for the BTK antisense RNA. Type of data set: cell-based, human. The conditions noted are these: HMC-1 target cells which integrated the vector; 4 clones; FIG. 3. The text has this: 2.1 We used antisense RNA to inhibit the expression of BTK in HMC-1, which is resistant to apoptosis. In this regard, we have constructed a retrovirus vector coding for an antisense RNA containing 32 nucleotides directed to the sequence comprised in the AUG region of the BTK gene (SEQ ID No 1).
Target cells, which integrated this vector, show a significant decrease in the expression of BTK. Regarding 4 clones, we have noted a decrease of about 50% of the expression of the BTK (see FIG. 3).

The test system of the next data set is HMC-1 cells. As to the kind of experiment: Tumor size in nude mice injected with HMC-1 cells expressing the BTK antisense. The conditions noted are these: nude mice injected with 2 millions HMC-1 cells, tumor size assessed few weeks after injection, FIG. 4. It is filed as in vivo. The source says: We used nude mice, which have been injected with 2 millions HMC-1 cells.

Data set [1] concerns HMC1 cells. The experiment in a line: G418-resistant colony formation of HMC1 cells infected with LNCX or LNCX-AS BTK virus. Type of data set: cell-based. As for the experimental part:
HMC1 cells seeded the day before in 6 wells plates (10^5 cells/ well) are infected with increasing doses of LNCX or LNCX-AS BTK virus. 24 hours after infection, cells are washed in PBS and cultured in medium containing geneticine (1.2 mg/ml). After one week, we observed the formation of colonies resistant to geneticine and whose number depends on the quantity of virus used for infection. When comparing the number of colonies of HMC1 resisting to G418 obtained from cells infected with the LNCX or LNCX-AS BTK virus, we observed independently of the virus concentration used, a lower number of colonies of cells infected with LNCX-AS BTK relative to the number of colonies of cells infected with LNCX. For equivalent quantity of virus, we obtained between 5 to 10 fold less colonies of HMC resisting to G418 by infecting with the LNCX-AS BTK virus compared to the infection with the LNCX “empty”.
The 10 to 20% surviving clones are those for which the antisense expression level is weak thereby maintaining a BTK expression level compatible with cellular survival.

The test system of data set [2] is HMC1 cells. As to the kind of experiment: Determination of HMC1 cells sensibility to G418 (lethal geneticine dose). It is filed as cell-based, human. The conditions noted are these: 6 wells plate; 0 to 1.4 mg/ml tested; colonies visualized one week after seeding. The method, then:
To determine, the lethal geneticine dose for HMC1, cells were seeded in 6 wells plate (10^5 cells/wells) in presence of increasing concentration of geneticine (0; 0.6; 0.8; 1; 1.2; 1.4 mg/ml). One week after seeding, colonies are visualized by crystal purple coloration. It appears that the effective dose was 1.2 mg/ml geneticine in the culture Media. Indeed, at lower doses, we observed development of HMC1 colonies. • -Infection of HMC1 Cells

Take “5′ AGAATCACTGCGGCCATAGCTTCTTCTTTCTG 3′ (chemistry not given here) [BTK antisense]”: the “decrease of the expression of the BTK” value in the data set on BTK is given as “about 50%”. For the same compound, the “anti-tumoral effect (size of the tumors)” value in the data set on HMC-1 cells is listed as “significant anti-tumoral effects”; with HMC-1 cells (listed as antisens oligonucleotide directed against BTK) it was “significantly decrease the size of tumors”. In the data set on HMC1 cells [1] (HMC1 cells, decrease of BTK expression by the antisense RNA), this compound gave a cellular mortality of 80 to 90%. In addition, in the data set on HMC1 cells [1] (HMC1 clones with weak antisense expression level), the surviving clones was in the range of 10 to 20%.

For `CN[C@@H]1[C@@H](O)[C@@H](O[C@@H]2[C@@H](O)[C@H](O[C@H]3O[C@H]([C@@H](C)O)[C@@H](O)[C@H](O)[C@H]3N)[C@@H](N)C[C@H]2N)OC[C@]1(C)O` [geneticine], in the data set on HMC1 cells [2], the “lethal (effective) geneticine dose for HMC1” value was found to be 1.2 mg/mL.
